According to patent EP0266828B1, “Control of biofouling with certain alkylthioalkylamines” (THE DOW CHEMICAL COMPANY, priority 1986, dated 1988):
In brackets after ≈: the same amount, converted by molar mass. Read-outs that look alike come from different tables or passages of the source.

Key:
[1] = tested on: Enterobacter aerogenes, ATCC #13048; experiment: Kill time evaluation (concentration that kills all cells); assay type: cell-based; conditions: Klebsiella aerogenes, ATCC13048
Method: Hard water was prepared by sterilizing deionized water and adjusted to 500 ppm hardness and 100 ppm alkalinity by addition of 16.7 ml of sterile CaCl₂·2H₂O (36.8 g/l), 16.7 ml of sterile MgSO₄·7H₂O (12 g/l), and 5 ml of sterile NaHCO₃ (16.8 g/l) to 1 liter of water. The pH was adjusted by addition of diluted NaOH or acetic acid.
(§1) Nutrient broth containing 300 ppm total organic carbon (TOC) and 800 ppm total dissolved solids (TDS), was adjusted to pH 8.5 with NaOH and dispensed in 10 ml aliquots into 18 x 150 mm test tubes. These tubes were capped and autoclaved for 15 minutes at 121°C. Immediately before use, 50 microliters (µl) of a heat sterilized solution of 31.74 g/l MgCl₂ and 73.99 g/l CaCl₂ was added to tubes designated to contain 500 ppm hardness. The tubes with and without added hardness were readjusted to pH 8.5 by addition of appropriate amounts of a filter sterilized solution of 16.8 g/l NaHCO. One hundred and eighty and 125 µl of the NaHCO solution were added, respectively, to tubes with and without added hardness to achieve a pH of 8.5.
(§2) Unless otherwise indicated, Enterobacter aerogenes, ATCC #13048, was used as the test organism. Three 0.1 ml aliquots of a 24 hour nutrient broth culture were pipetted onto three nutrient agar plates and spread uniformly with a Petri dish spreader. After 24 hours' growth, the cells were scraped and washed off the agar surface with sterile glass rods (hockey sticks) and sterile saline solution. After vigorous mixing (vortexing) to break up clumps, the cell suspension was filtered through a sterile filter (Whatman #4) to remove residual clumps. […] Solutions with this optical density, when diluted 1:100, contained approximately 10¹⁰ CFU/ml when plated on standard nutrient agar. The exact number of organisms was determined by making serial dilutions of the cell suspension and plating them on nutrient agar plates. Each of the serial dilution tubes was also streaked on a nutrient agar plate. These streaks of known concentrations of organisms were then used as controls to determine the number of organisms in the test samples.
(§3) Just prior to the addition of the test compounds, 0.1 ml of the cell suspension containing approximately 10¹⁰ cells/ml was added to the prepared broth tubes. Solutions of 0.1 percent weight/weight (w/w) of experimental compound were prepared immediately before use. Appropriate amounts of these solutions were added to achieve final concentrations of 100, 50, 25, 10, 5 ppm of active ingredient in broth tubes both with and/or without hardness. The tubes were then incubated at 30°C. After three and/or 24 hours, dilutions of the broth tubes were made by addition of 0.1 ml of the broth into 9.9 ml of 0.85 percent saline containing 100 ppm NaHSO₃. From the saline tube the samples were streaked with cotton swabs onto nutrient agar plates which also contained 100 ppm NaHSO₃.
(§4) The plates were incubated for 24 hours and then read. The number of organisms present in the broth tubes was determined by comparing these plates to the control plates of the serial dilution tubes.
Dilute (1/10) nutrient broth was prepared according to standard methods known in the art and then adjusted to a variety of pH's by the addition of NaOH and HCl. The Kill Time Procedure substantially similar to that described in Example 2 was performed. High water hardness was not evaluated in this study.
The Kill Time Evaluation substantially similar to that described in Example 2 was performed.

Enterobacter aerogenes = experiment: Minimum inhibitory concentration (MIC) procedure in agar at alkaline pH; assay type: cell-based; conditions: Klebsiella aerogenes; pH 8.2; 48 hours at 30°C; no high water hardness; unit ppm only from method
Method: The agar (nutrient agar) was dispensed in 30 ml aliquots into 25 x 200 millimeter (mm) test tubes, capped and autoclaved for 15 minutes at 115°C. The test tubes containing the agar were cooled in a water bath until the temperature of the agar was 48°C and then an appropriate amount of the one percent solution of the test compound was added (except in the controls where no test compound was added) to the respective test tubes so that final concentrations of 500, 250, 100, 50, 25, 10, 5, 2.5, 1.0 and 0 parts per million (ppm) of the test compound in the agar were obtained. The afar solutions were each mixed and poured into individual petri plates so that each petri plate contained agar having a known concentration of test compound dispersed therein. After drying for 24 hours, the petri plates were inoculated with bacteria. The inoculation with bacteria was accomplished using the following procedure. Twenty-four hour cultures of the bacteria were prepared by incubating the bacteria in tubes containing nutrient broth for 24 hours at 30°C in a shaker. Dilutions of the 24 hour culture were made so that a suspension was made, containing about 10⁸ colony forming units (CFU) per ml of suspension of bacteria. Aliquots of 0.3 ml of the above suspension were used to fill individual wells of a Steer's Replicator. The Steer's Replicator was then used to inoculate the petri plates. The petri plates were incubated at 30°C for 48 hours and then read to determine if the test compound which was incorporated into the agar prevented growth of the respective bacteria. The minimum inhibitory concentration (MIC) for each bacteria was defined as the lowest concentration of the test compound which prevented growth of that bacteria. The MIC procedure substantially as described in Example 1 was performed. High water hardness was not evaluated in this study.

Aspergillus niger = experiment: Kill time procedure against fungus, malt yeast agar; assay type: cell-based; conditions: pH of 8.2 to 8.3, read-out: Ppm of Compound that Resulted in Kill of All Cells at Various Times
Method: as §1, §2, §3, §4
The kill time procedure substantially as described in Example 2 was performed using Aspergillus niger at a pH of 8.2 to 8.3. Malt yeast agar was used instead of nutrient agar and the incubation times were extended to accommodate the slower growing fungi cells.

algae = experiment: Cooling tower trial versus duplicate tower without biocide; conditions: 15 ppm added twice a week to recirculating water; pH of 8.5; hardness of 900 ppm; two week period
Text: In comparison, the tower without any added biocide became heavily fouled with algae in the same two week period of time.

[2] = 3 hr, pH 8.5, hardness 500 ppm CaCo3, read-out: Ppm of the Compound that Kill all Cells
[3] = 24 hr, pH 8.5, hardness 500 ppm CaCo3, read-out: Ppm of the Compound that Kill all Cells

| MIC (Enterobacter aerogenes) | SMILES | MBC [1, 2] | MBC [1, 3] | further results |
| --- | --- | --- | --- | --- |
| 10 to 25 µg/mL (≈ 46 to 115 µM) | CCCCCCCCCCSCCN [n-decylthioethylamine] | 20 µg/mL (≈ 92 µM) | 40 µg/mL (≈ 184 µM) | MBC ([1]; pH 5, 3 hours, dilute (1/10) nutrient broth, no high water hardness, read-out: Concentration (ppm) of DTEA That Kills all Cells in 3 Hours): 50 µg/mL (≈ 230 µM); MBC ([1]; pH 6, 3 hours, dilute (1/10) nutrient broth, no high water hardness, read-out: Concentration (ppm) of DTEA That Kills all Cells in 3 Hours): 50 µg/mL (≈ 230 µM); MBC ([1]; pH 7, 3 hours, dilute (1/10) nutrient broth, no high water hardness, read-out: Concentration (ppm) of DTEA That Kills all Cells in 3 Hours): 20 µg/mL (≈ 92 µM); MBC ([1]; pH 8, 3 hours, dilute (1/10) nutrient broth, no high water hardness, read-out: Concentration (ppm) of DTEA That Kills all Cells in 3 Hours): 10 µg/mL (≈ 46 µM); MBC ([1]; pH 9, 3 hours, dilute (1/10) nutrient broth, no high water hardness, read-out: Concentration (ppm) of DTEA That Kills all Cells in 3 Hours): 5 µg/mL (≈ 23 µM); MBC ([1]; pH 10, 3 hours, dilute (1/10) nutrient broth, no high water hardness, read-out: Concentration (ppm) of DTEA That Kills all Cells in 3 Hours): ≤ 5 µg/mL; MBC ([1]; pH 11, 3 hours, dilute (1/10) nutrient broth, no high water hardness, read-out: Concentration (ppm) of DTEA That Kills all Cells in 3 Hours): ≤ 5 µg/mL; MBC ([1]; pH 12, 3 hours, dilute (1/10) nutrient broth, no high water hardness, read-out: Concentration (ppm) of DTEA That Kills all Cells in 3 Hours): ≤ 5 µg/mL; MFC (Aspergillus niger; pH 8.2, 3 hr.): 3.5 µg/mL (≈ 16.1 µM); MFC (Aspergillus niger; pH 8.2, 6 hr.): 0.5 to 3.5 µg/mL (≈ 2.3 to 16.1 µM); MFC (Aspergillus niger; pH 8.2, 24 hr.): 0.1 µg/mL (≈ 0.46 µM); growth of algae in the treated tower or basin (algae): prevent the growth of any algae |
| 50 to 100 µg/mL (≈ 204 to 407 µM) | CCCCCCCCCCCCSCCN [n-dodecylthioethylamine] | 50 µg/mL (≈ 204 µM) | 150 µg/mL (≈ 611 µM) | – |
| 250 to 500 µg/mL (≈ 1550 to 3100 µM) | CCCCCCSCCN [n-hexylthioethylamine] | 500 µg/mL (≈ 3100 µM) | 250 µg/mL (≈ 1550 µM) | – |
| 25 µg/mL (≈ 123 µM) | CCCCCCCCCSCCN [n-nonylthioethylamine] | – | – | – |
| 25 µg/mL (≈ 132 µM) | CCCCCCCCSCCN [n-octylthioethylamine] | 150 µg/mL (≈ 792 µM) | 75 µg/mL (≈ 396 µM) | MFC (Aspergillus niger; pH 8.2, 3 hr.): 50 µg/mL (≈ 264 µM); MFC (Aspergillus niger; pH 8.2, 6 hr.): 25 µg/mL (≈ 132 µM); MFC (Aspergillus niger; pH 8.2, 24 hr.): 10 µg/mL (≈ 52.8 µM) |
| > 500 µg/mL | CCCCCCCCCCCCCCSCCN [n-tetradecylthioethylamine] | > 500 µg/mL | > 500 µg/mL | – |
| 50 µg/mL (≈ 216 µM) | CCCCCCCCCCCSCCN [n-undecylthioethylamine] | – | – | – |
